Laboratory results: patent publication US20130296363A1, “QUINOLINE AND ISOQUINOLINE DERIVATIVES FOR USE AS JAK MODULATORS” (AMBIT BIOSCIENCES CORPORATION, priority 2010, published 2013)

Assays:
[1] = tested on: GM-CSFR/JAK2/STAT5 pathway in CSTF-1 cells; assay: CSTF-1 cell-based reporter assay (beta-lactamase reporter, GM-CSF stimulated); details: Homo sapiens, GM-CSF at 2 ng/mL, 4 hours, read-out: Cell Assay: CS TF-1 reporter assay IC50
Method: CSTF-1 cells are derived from the human erythroleukemia cell line that is growth dependent on GM-CSF and has an intact GM-CSFR/JAK2/STAT5 pathway. The cell line contains stably integrated beta-lactamase reporter gene under the control of the […] (irf 1) response element recognized by the activated transcription factor STAT5. csTF-1 cells (Invitrogen K1219) were washed with assay media (97% OPTIMEM/0.5% dialyzed FBS/0.1 mM NEAA/1 mM Na pyr/P/S) and seeded in the same media at 5×10^5 cell/mL in T150 flask. After 16 hour incubation, cells were seeded at 2×10^5 cell/well in 50 μl volume, into Costar, clear bottom, 96-well assay plates. Serial dilutions of compounds were added to the plates with final DMSO concentration at 0.5% and GM-CSF at 2 ng/mL and the plates were then incubated at 30° C. and 5% CO2 for 4 hours. The plates were brought to room temperature before adding Substrate Mixture according to manufacturer's protocol (Invitrogen, Catalog #K1085). The assay plates containing the substrate mixture were incubated in the dark at room temperature for 2 hours. Blue and green fluorescence was measured with excitation at 409 nm and emission at 460 nm (for blue) and excitation at 409 nm and emission at 530 nm (for green) using Spectra Max Gemini EM.

[2] = biological target: T1, JAK2 (Homo sapiens, UniProt O60674); assay: Competition binding assay to determine Kd against JAK kinases: JAK2
T1 construct: made in house
T1 sequence (O60674 whole entry): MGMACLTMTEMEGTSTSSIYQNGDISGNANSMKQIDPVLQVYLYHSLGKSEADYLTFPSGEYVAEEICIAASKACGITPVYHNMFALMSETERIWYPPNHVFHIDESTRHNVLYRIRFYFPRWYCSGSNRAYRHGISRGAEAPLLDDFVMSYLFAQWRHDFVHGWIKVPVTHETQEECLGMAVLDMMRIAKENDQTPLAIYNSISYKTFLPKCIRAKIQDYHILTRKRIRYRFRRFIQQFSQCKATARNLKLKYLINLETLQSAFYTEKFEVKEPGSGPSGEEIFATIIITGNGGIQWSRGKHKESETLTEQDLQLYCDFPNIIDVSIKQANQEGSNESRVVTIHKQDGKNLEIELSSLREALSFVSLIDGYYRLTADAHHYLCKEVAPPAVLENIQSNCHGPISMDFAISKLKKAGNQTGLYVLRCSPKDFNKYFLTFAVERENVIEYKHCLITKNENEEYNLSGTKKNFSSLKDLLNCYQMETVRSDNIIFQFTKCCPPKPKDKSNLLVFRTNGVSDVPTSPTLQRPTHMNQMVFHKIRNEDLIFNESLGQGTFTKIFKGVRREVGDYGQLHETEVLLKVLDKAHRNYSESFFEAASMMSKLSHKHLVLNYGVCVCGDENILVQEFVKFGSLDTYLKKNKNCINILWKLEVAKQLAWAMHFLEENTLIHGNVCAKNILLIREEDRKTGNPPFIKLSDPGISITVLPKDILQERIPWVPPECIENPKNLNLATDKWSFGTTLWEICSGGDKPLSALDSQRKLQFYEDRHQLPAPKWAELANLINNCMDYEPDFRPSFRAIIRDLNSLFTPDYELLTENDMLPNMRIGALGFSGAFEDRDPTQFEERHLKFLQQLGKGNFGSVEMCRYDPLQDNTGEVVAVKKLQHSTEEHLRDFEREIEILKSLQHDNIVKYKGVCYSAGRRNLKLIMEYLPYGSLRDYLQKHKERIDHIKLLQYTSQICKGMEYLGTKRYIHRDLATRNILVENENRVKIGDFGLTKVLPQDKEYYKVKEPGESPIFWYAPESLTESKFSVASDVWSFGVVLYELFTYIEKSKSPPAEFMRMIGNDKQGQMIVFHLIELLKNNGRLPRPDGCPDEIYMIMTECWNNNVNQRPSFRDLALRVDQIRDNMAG
Method: (§1) Competition binding assays used herein were developed, validated and performed as described in Fabian et al., Nature Biotechnology 2005, 23, 329-336. Kinases were produced as fusions to T7 phage (See, Fabian et al. or WO04/015142) or alternatively, the kinases were expressed in HEK-293 cells and subsequently tagged with DNA for PCR detection (See, WO08/005,310). For the binding assays, streptavidin-coated magnetic beads were treated with biotinylated affinity ligands for 30 min at rt to generate affinity resins. The liganded beads were blocked with excess biotin and washed with blocking buffer (SeaBlock (Pierce), 1% BSA, 0.05% Tween 20, 1 mM DTT) to remove unbound ligand and to reduce non-specific binding. Binding reactions were assembled by combining kinase, liganded affinity beads, and test compounds in 1× binding buffer (20% SeaBlock, 0.17×PBS, 0.05% Tween 20, 6 mM DTT). Test compounds were prepared as 100× stocks in DMSO and rapidly diluted into the aqueous environment. DMSO was added to control assays lacking a test compound. Primary screen interactions were performed in polypropylene 384-well plates in a final volume of 34 μL, while Kd determinations were performed in polystyrene 96-well plates in a final volume of 135 μL. The assay plates were incubated at room temperature with shaking for 1 hour, long enough for binding reactions to reach equilibrium, and the affinity beads were washed extensively with wash buffer (1×PBS, 0.05% Tween 20) to remove unbound protein. The beads were then resuspended in elution buffer (1×PBS, 0.05% Tween 20, 2 μM non-biotinylated affinity ligand) and incubated at room temperature with shaking for 30 min. The kinase concentration in the eluates was measured by quantitative PCR. Each kinase was tested individually against each compound. Kds were determined using eleven serial threefold dilutions. A selectivity score, which is a quantitative measure of selectivity of a compound against a panel of enzymes, may be calculated for a compound by dividing the number of enzymes for which a compound meets a set criteria, (for example, a binding constant of 100 nM or less), by the total number of enzymes tested.

[3] = biological target: T2, JAK3 (Homo sapiens, UniProt P52333); assay: Competition binding assay to determine Kd against JAK kinases: JAK3
T2 construct: made in house
T2 sequence (P52333 1-1124): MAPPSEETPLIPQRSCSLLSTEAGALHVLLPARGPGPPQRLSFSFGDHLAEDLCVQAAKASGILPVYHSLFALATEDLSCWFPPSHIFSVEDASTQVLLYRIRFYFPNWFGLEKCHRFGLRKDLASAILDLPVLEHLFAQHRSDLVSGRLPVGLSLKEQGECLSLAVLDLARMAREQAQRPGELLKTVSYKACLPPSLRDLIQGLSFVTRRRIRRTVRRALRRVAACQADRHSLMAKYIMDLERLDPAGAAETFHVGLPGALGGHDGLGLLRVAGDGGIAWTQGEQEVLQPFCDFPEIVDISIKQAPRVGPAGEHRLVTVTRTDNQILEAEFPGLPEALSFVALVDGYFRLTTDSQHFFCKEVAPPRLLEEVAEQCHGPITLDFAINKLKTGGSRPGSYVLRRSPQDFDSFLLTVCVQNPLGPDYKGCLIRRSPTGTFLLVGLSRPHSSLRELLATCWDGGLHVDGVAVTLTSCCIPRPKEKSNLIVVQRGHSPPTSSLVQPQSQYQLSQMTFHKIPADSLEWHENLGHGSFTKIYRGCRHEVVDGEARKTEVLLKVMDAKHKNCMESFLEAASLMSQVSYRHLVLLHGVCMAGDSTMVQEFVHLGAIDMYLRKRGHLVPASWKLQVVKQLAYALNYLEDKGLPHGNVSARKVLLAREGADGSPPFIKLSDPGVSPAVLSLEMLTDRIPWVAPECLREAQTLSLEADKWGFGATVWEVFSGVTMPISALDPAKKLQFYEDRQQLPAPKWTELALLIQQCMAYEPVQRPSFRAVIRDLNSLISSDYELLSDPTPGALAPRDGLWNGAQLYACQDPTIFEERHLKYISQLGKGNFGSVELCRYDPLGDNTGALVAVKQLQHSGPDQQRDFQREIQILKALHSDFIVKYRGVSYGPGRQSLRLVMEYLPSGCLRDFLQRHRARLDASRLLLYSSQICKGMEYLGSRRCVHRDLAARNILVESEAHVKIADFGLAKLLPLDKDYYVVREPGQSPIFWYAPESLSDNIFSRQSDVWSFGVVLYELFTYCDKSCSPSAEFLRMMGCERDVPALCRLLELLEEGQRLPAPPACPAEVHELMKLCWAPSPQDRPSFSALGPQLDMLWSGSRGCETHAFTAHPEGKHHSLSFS
Method: as §1

[4] = biological target: T3, TYK2 (Homo sapiens, UniProt P29597); assay: Competition binding assay to determine Kd against JAK kinases: TYK2
T3 construct: made in house
T3 sequence (P29597 whole entry): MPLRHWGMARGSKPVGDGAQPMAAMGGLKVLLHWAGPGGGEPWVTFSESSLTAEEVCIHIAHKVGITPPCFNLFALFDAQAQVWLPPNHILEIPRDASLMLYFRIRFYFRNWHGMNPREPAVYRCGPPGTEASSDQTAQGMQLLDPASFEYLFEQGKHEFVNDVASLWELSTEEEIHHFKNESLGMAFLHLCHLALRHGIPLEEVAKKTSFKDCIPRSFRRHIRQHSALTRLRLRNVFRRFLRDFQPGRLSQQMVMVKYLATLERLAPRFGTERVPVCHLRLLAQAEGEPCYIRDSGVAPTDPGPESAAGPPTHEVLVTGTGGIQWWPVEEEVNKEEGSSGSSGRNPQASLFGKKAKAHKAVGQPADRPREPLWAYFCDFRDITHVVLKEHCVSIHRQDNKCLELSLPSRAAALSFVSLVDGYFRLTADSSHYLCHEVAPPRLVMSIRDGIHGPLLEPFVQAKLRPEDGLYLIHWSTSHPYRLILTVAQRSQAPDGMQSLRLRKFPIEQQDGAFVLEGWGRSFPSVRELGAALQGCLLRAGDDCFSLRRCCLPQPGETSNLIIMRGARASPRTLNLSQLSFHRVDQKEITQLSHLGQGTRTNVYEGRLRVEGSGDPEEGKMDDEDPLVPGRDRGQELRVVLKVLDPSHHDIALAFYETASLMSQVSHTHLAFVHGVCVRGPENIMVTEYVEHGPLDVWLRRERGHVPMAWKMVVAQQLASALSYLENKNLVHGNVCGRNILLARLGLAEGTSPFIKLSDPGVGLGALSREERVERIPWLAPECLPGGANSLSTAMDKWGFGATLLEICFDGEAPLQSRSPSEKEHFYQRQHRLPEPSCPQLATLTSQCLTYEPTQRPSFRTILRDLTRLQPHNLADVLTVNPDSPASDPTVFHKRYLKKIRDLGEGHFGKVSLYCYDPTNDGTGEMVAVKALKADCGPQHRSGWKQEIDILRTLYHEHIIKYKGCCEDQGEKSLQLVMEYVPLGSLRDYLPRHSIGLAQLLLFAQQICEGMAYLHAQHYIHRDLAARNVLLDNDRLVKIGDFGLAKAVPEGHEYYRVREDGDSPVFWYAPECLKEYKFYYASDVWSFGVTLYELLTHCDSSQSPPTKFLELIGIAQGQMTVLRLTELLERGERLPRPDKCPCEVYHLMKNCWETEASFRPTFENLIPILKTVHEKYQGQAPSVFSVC
Method: as §1

[5] = tested on: panel of distinct kinases excluding mutant variants, typically 359 or 386 kinases; assay: Kinase selectivity score S10 from competition binding panel; details: compound at 10 μM; fraction of kinases with inhibition of 90% or greater
Method: as §1

Cc1cc(Nc2nc(C(=O)c3ccc(F)cc3)cc3ccccc23)n[nH]1 [Example 1, (4-fluorophenyl)(1-(5-methyl-1H-pyrazol-3-ylamino)isoquinolin-3-yl)methanone]
IC50 [1]: 100 to 500 nM | Kd [2]: ≤ 5 nM | Kd [3]: 10 to 100 nM | Kd [4]: ≤ 10 nM | S-Score: S(10) at 10 μM [5]: A (A ≦ 0.3)
